Measured values as given in article PMC3675115, “Mycobacterium tuberculosis Rv3406 Is a Type II Alkyl Sulfatase Capable of Sulfate Scavenging” (PLoS ONE, 2013).
Where a name gives a salt, the structure may show the parent alone.

What was measured:
AtsK = molecular target: T1, AtsK (Pseudomonas putida, UniProt Q9WWU5); test: NADH/LADH coupled assay, […] nm; type: biochemical; settings: alpha-ketoglutarate, Fe(II), ascorbate; 1 and 10 mM substrate
T1 construct: not described in main text (supplement File S1)

Rv3406 = Rv3406 (Mycobacterium tuberculosis, UniProt P9WKZ1); test: NADH/LADH coupled assay, […] nm; type: biochemical; settings: co-substrate with 2-EHS, Fe(II), ascorbate, pH 7.5, 25 C

T1 sequence (Q9WWU5 whole entry): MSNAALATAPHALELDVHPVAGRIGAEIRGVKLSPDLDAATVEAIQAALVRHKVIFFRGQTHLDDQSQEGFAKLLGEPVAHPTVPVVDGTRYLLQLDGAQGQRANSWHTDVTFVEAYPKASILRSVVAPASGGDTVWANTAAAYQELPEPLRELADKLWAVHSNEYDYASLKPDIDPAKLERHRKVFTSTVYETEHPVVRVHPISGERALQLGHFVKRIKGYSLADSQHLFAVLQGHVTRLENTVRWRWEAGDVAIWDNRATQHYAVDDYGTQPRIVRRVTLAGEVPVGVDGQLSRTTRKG

| SMILES | NADH/LADH coupled assay, 340 nm (AtsK) | NADH/LADH coupled assay, 340 nm (Rv3406) |
| --- | --- | --- |
| CCCCC(CC)COS(=O)(=O)O (centres unmarked) [2-ethylhexyl sulfate] | we also tested AtsK and found 2-EHS was its preferred substrate as well |  |
| O=C(O)CCC(=O)C(=O)O [α-ketoglutarate] |  | Rv3406’s activity on 2-EHS is dependent on the cosubstrate αKG |
